Molecular target: T1, CDK2 (Homo sapiens, UniProt P24941)
T1 construct: endogenous in cells; host or cells: MKN1 cells
Experiment: CDK2 degradation in MKN1 cells (AlphaLISA)
Format: cell-based
Parameters: key to CDK2 degradation 14 h: Mean external-Abs DC50 (nM): A (<100 nM); B (≥100-500 nM); C (>500-1000 nM); D (>1000 nM); E (not achieved)
Settings: 14 h incubation; for DC50: read-out: CDK2 degradation 14 h: Mean external-Abs DC50
In short: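 DC50 from four-parameter logistic fit of AlphaLISA CDK2 signal, corrected for no-cell wells. Lysates came from MKN1 cells, 2e4 per well, exposed 14 h at 37° C to compound at 0.001 nM-10 μM (1:5 series, 11 doses) in 0.1% DMSO.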

CDK2 degradation 14 h: Average Dmax % | DC50 [nM] | CDK2 degradation 14 h: Mean external-Abs DC50 (nM) | Compound
A (A (>75% o)) | < 100 | – | Cc1cc(S(=O)(=O)NCCO[C@H]2CC[C@H](CN3CC(c4ccc5c(c4)n(C)c(=O)n5C4CCC(=O)NC4=O)C3)CC2)ccc1Nc1ncc2cc(Cl)c(=O)n(C3CCCC3)c2n1 (stereo partly shown) [I-430]
A (A (>75% o)) | < 100 | – | Cc1nn(C2CCC(=O)NC2=O)c2ccc(N3CCN(CC4CCC(NS(=O)(=O)c5ccc(Nc6ncc(C(F)(F)F)c(N7CCCC(C)(O)C7)n6)c(F)c5)CC4)CC3)cc12 (stereo not shown) [I-1065]
A (A (>75% o)) | < 100 | – | Cc1cc(S(=O)(=O)NC2CC(N3CCN(CC4CCN(c5ccc6c(c5F)n(C)c(=O)n6C5CCC(=O)NC5=O)CC4)CC3)C2)ccc1Nc1ncc2cc(Cl)c(=O)n(C3CCCC3)c2n1 (stereo not shown) [I-832]
A (A (>75% o)) | < 100 | – | Cc1cc(S(=O)(=O)C2CCN(CCC3CCN(c4cccc5c4n(C)c(=O)n5C4CCC(=O)NC4=O)CC3)CC2)ccc1Nc1ncc2cc(Cl)c(=O)n(C3CCCC34CC4)c2n1 (stereo not shown) [I-59]
A (A (>75% o)) | < 100 | – | Cc1cc(S(=O)(=O)NC2CC(N3CCN(CC4CCN(c5ccc(C6CCC(=O)NC6=O)c(Cl)c5)CC4)CC3)C2)ccc1Nc1ncc(C(F)(F)F)c(N2CCCC(C)(O)C2)n1 (stereo not shown) [I-714]
A (A (>75% o)) | 100 to 500 | – | Cc1cc(S(=O)(=O)NC2CCC(CN3CCN(c4ccc(C(=O)NC5CCC(=O)NC5=O)cc4C)CC3)CC2)ccc1Nc1ncc(C(F)(F)F)c(N2CCCC(C)(O)C2)n1 (stereo not shown) [I-1126]
A (A (>75% o)) | 100 to 500 | – | CC1(O)CCCN(c2nc(Nc3ccc(S(=O)(=O)NC4CCC(CN5CCN(c6ccc(C7CCC(=O)NC7=O)c(F)c6)CC5)CC4)cc3OC(F)F)ncc2C(F)(F)F)C1 (stereo not shown) [I-1115]
A (A (>75% o)) | < 100 | – | CC1CC(NS(=O)(=O)c2ccc(Nc3ncc(C(F)(F)F)c(N4CCCC(C)(O)C4)n3)c(F)c2)CCN1CC1CCN(c2ccc(C3CCC(=O)NC3=O)c(F)c2)CC1 (stereo not shown) [I-1059]
A (A (>75% o)) | < 100 | – | Cc1cc(S(=O)(=O)NC2CCC(CN3CCN(c4ccc(C5CCC(=O)NC5=O)cc4Cl)CC3)CC2)ccc1Nc1ncc(C(F)(F)F)c(N2CCCC(C)(O)C2)n1 (stereo not shown) [I-807]
B (B (>50% -75%)) | < 100 | – | Cc1cc(S(=O)(=O)C2CC3(CCN(CC4CCN(c5ccc6c(c5F)n(C)c(=O)n6C5CCC(=O)NC5=O)CC4)CC3)C2)ccc1Nc1ncc(C(F)(F)F)c(N2CCCC(O)(C(F)F)C2)n1 (stereo not shown) [I-507]
A (A (>75% o)) | < 100 | – | CC1CN(CC2CCN(c3ccc(C4CCC(=O)NC4=O)c(F)c3)CC2)CCC1NS(=O)(=O)c1ccc(Nc2ncc(C(F)(F)F)c(N3CCCC(C)(O)C3)n2)c(F)c1 (stereo not shown) [I-1063]
A (A (>75% o)) | < 100 | – | Cc1cc(S(=O)(=O)NC2CCN(CC3CCN(c4ccc(C5CCC(=O)NC5=O)cc4F)CC3)CC2F)ccc1Nc1ncc(C(F)(F)F)c(N2CCCC(C)(O)C2)n1 (stereo not shown) [I-1141]
A (A (>75% o)) | < 100 | – | Cc1nc(S(=O)(=O)NC2CCC(CN3CCN(c4ccc(C5CCC(=O)NC5=O)c(Cl)c4)CC3)CC2)ccc1Nc1ncc(C(F)(F)F)c(N2CCCC(C)(O)C2)n1 (stereo not shown) [I-1048]
A (A (>75% o)) | < 100 | – | Cc1cc(S(=O)(=O)NC2CCC(CN3CCN(c4ccc(NC5CCC(=O)NC5=O)cc4F)CC3)CC2)ccc1Nc1ncc(C(F)(F)F)c(N2CCCC(C)(O)C2)n1 (stereo not shown) [I-822]

Further lines, the compound ahead of its results:

Compound | CDK2 degradation 14 h: Average Dmax % | DC50 [nM] | CDK2 degradation 14 h: Mean external-Abs DC50 (nM)
Cc1cc(S(=O)(=O)NCCCN(C)C2CCN(c3cccc4c3n(C)c(=O)n4C3CCC(=O)NC3=O)CC2)ccc1Nc1ncc2cc(Cl)c(=O)n(C3CCCC3)c2n1 (stereo not shown) [I-420] | A (A (>75% o)) | < 100 | –
CC1(O)CCCN(c2nc(Nc3ccc(S(=O)(=O)NC4CCC5(CC4)CN(CC4CCN(c6ccc(C7CCC(=O)NC7=O)c(F)c6)CC4)C5)cc3F)ncc2C(F)(F)F)C1 (stereo not shown) [I-1064] | A (A (>75% o)) | < 100 | –
Cc1cc(S(=O)(=O)N2CCC(N3CCC(F)(CN(C)c4ccc5c(c4F)n(C)c(=O)n5C4CCC(=O)NC4=O)CC3)CC2)ccc1Nc1ncc2ccc(=O)n(C3CCCC3)c2n1 (stereo not shown) [I-829] | D (D (<25%)) | – | E
Cc1cc(S(=O)(=O)N2CCC(CN(C)C3CCN(c4cccc5c4n(C)c(=O)n5C4CCC(=O)NC4=O)CC3)CC2)ccc1Nc1ncc(C(F)(F)F)c(C2CCCCC2)n1 (stereo not shown) [I-1153] | A (A (>75% o)) | 100 to 500 | –
Cc1cc(S(=O)(=O)C2CC3(CCN(CC4CCN(c5ccc(OC6CCC(=O)NC6=O)cc5)CC4)CC3)C2)ccc1Nc1ncc2cc(Cl)c(=O)n(C3CCCC3)c2n1 (stereo not shown) [I-73] | A (A (>75% o)) | < 100 | –
Cc1cc(S(=O)(=O)C2CC3(CCN(CC4CCN(c5ccc6c(oc(=O)n6C6CCC(=O)NC6=O)c5F)CC4)CC3)C2)ccc1Nc1ncc2cc(Cl)c(=O)n(C3CCCC3)c2n1 (stereo not shown) [I-302] | A (A (>75% o)) | < 100 | –
Cc1cc(S(=O)(=O)C2CC3(CCN(CC4CCN(c5ccc(NC6CCC(=O)NC6=O)cc5F)CC4)CC3)C2)ccc1Nc1ncc2cc(Cl)c(=O)n(C3CCCC3)c2n1 (stereo not shown) [I-152] | B (B (>50% -75%)) | < 100 | –
Cc1cc(S(=O)(=O)NC2CCC(CN3CCC(c4ccc(C5CCC(=O)NC5=O)c(F)c4)CC3)CC2)ccc1Nc1ncc(C(F)(F)F)c(N2CCCC(C)(O)C2)n1 (stereo not shown) [I-1131] | A (A (>75% o)) | < 100 | –
Cc1cc(S(=O)(=O)N2CCC(CN(C)C3CCN(c4cccc5c4n(C)c(=O)n5C4CCC(=O)NC4=O)CC3)CC2)ccc1Nc1ncc2cc(Cl)c(=O)n(C(C)C)c2n1 (stereo not shown) [I-437] | A (A (>75% o)) | < 100 | –
Cc1cc(S(=O)(=O)C2CC3(CCN(CC4CCN(c5cccc6c5n(C)c(=O)n6C5CCC(=O)NC5=O)CC4)CC3)C2)ccc1Nc1ncc2cc(Cl)c(=O)n(C3CCCC3)c2n1 (stereo not shown) [I-58] | A (A (>75% o)) | < 100 | –
Cc1cc(S(=O)(=O)N[C@@H](C)CO[C@H]2CC[C@H](CN3CCN(c4ccc5c(c4F)n(C)c(=O)n5C4CCC(=O)NC4=O)CC3)CC2)ccc1Nc1ncc2ccc(=O)n(C3CCCC3)c2n1 (stereo partly shown) [I-828] | A (A (>75% o)) | < 100 | –
Cc1cc(S(=O)(=O)NC2CC(N3CCN(CC4CCN(c5ccc6c(c5F)n(C)c(=O)n6C5CCC(=O)NC5=O)CC4)CC3)C2)ccc1Nc1ncc(C(F)(F)F)c(N2CCCC(C)(O)C2)n1 (stereo not shown) [I-831] | A (A (>75% o)) | < 100 | –
Cc1cc(S(=O)(=O)N2CCC(CCN3CCN(c4cccc5c4n(C)c(=O)n5C4CCC(=O)NC4=O)CC3)CC2)ccc1Nc1ncc2cc(Cl)c(=O)n(C3CCCC3)c2n1 (stereo not shown) [I-423] | A (A (>75% o)) | < 100 | –
Cc1cc(S(=O)(=O)NC2CC(N3CCN(CC4CN(c5cccc6c5n(C)c(=O)n6C5CCC(=O)NC5=O)C4)CC3)C2)ccc1Nc1ncc(C(F)(F)F)c(C2CCC(C)(O)CC2)n1 (stereo not shown) [I-847] | A (A (>75% o)) | < 100 | –
Cc1cc(S(=O)(=O)NC2CC(N3CCN(CC4CCN(c5ccc(C6CCC(=O)NC6=O)cc5)CC4)CC3)C2)ccc1Nc1ncc(C(F)(F)F)c(N2CCCC(C)(O)C2)n1 (stereo not shown) [I-719] | A (A (>75% o)) | < 100 | –
Cc1cc(S(=O)(=O)C2CC3(CCN(CC4CCN(c5ccc(NC6CCC(=O)NC6=O)c(C)c5)CC4)CC3)C2)ccc1Nc1ncc2cc(Cl)c(=O)n(C3CCCC3)c2n1 (stereo not shown) [I-76] | B (B (>50% -75%)) | 500 to 1000 | –
Cc1cc(S(=O)(=O)C2CC3(CCN(CC4CCN(c5ccc(NC6CCC(=O)NC6=O)c6ccccc56)CC4)CC3)C2)ccc1Nc1ncc2ccc(=O)n(C(C)C)c2n1 (stereo not shown) [I-206] | B (B (>50% -75%)) | 100 to 500 | –
Cc1cc(S(=O)(=O)C2CCN(C3CCN(CC4CCN(c5cccc6c5n(C)c(=O)n6C5CCC(=O)NC5=O)CC4)CC3)CC2)ccc1Nc1ncc2cc(Cl)c(=O)n(C(C)C)c2n1 (stereo not shown) [I-10] | A (A (>75% o)) | < 100 | –
Cc1cc(S(=O)(=O)NC2CCC(CN3CCN(c4cc(NC5CCC(=O)NC5=O)ccc4F)CC3)CC2)ccc1Nc1ncc(C(F)(F)F)c(N2CCCC(C)(O)C2)n1 (stereo not shown) [I-1120] | A (A (>75% o)) | < 100 | –
CC1(O)CCN(c2nc(Nc3ccc(S(=O)(=O)NC4CCN(CC5CCN(c6ccc(C7CCC(=O)NC7=O)c(F)c6)CC5)CC4F)cc3F)ncc2C(F)(F)F)CC1 (stereo not shown) [I-1051] | A (A (>75% o)) | < 100 | –
Cc1cc(S(=O)(=O)N2CCC(N(C)CC3CCN(c4cccc5c4n(C)c(=O)n5C4CCC(=O)NC4=O)CC3)C(F)(F)C2)ccc1Nc1ncc2cc(Cl)c(=O)n(C3CCCC34CC4)c2n1 (stereo not shown) [I-355] | D (D (<25%)) | > 1000 | –
